Tests used:
[1] = system: RAS pathway activated TF-1, Ba/F3 and UT-7 cells; assay: Trametinib dose-range cytotoxicity in RAS pathway activated cell lines; assay type: cell-based, human; murine; conditions: three fold-dilutions dose-range
Method: UptiBlue: Cells were seeded in 100 μl of culture medium for 48 hours. […] The UptiBlue viable cell-counting reagent (Interchim, Montluçon, France) was then added for 4 hours and fluorescence was measured with a Typhoon 8600 scanner (GE Healthcare BioSciences, Buc, France).

NRAS^G12A-mutated AML = assay type: in vivo; conditions: person, trametinib 2 mg/d, hydroxycarbamide 2000 mg daily

| Structure (SMILES) | cytotoxicity in RAS activated cells compared to isogenic control cells [1] | toxicity in patient (NRAS^G12A-mutated AML) | white blood cell count / leukocytosis (NRAS^G12A-mutated AML; second course) |
| --- | --- | --- | --- |
| CC(=O)Nc1cccc(-n2c(=O)n(C3CC3)c(=O)c3c(Nc4ccc(I)cc4F)n(C)c(=O)c(C)c32)c1 [trametinib] | marked enhancement of trametinib cytotoxicity | neurological toxicity |  |
| NC(=O)NO [hydroxycarbamide] |  | hematological toxicity | limited efficacy |

Reference: US20220288040A1, “USE OF PYRVINIUM FOR THE TREATMENT OF A RAS PATHWAY MUTATED ACUTE MYELOID LEUKEMIA” (INSERM (INSTITUT NATIONAL DE LA SANTÉ ET DE LA RECHERCHE …, priority 2019, published 2022)
